# Assay results taken from patent US20240109903A1, “SUBSTITUTED HETEROCYCLES FOR TREATING CANCER” (Northwestern University, priority 2022, published 2024).
# Like-named read-outs stand apart in the source and are kept apart here.
# Assays:
# [1] = test system: MV-4-11 acute myeloid leukemia cells; experiment: CellTiter-Glo 2.0 cell viability, MV-4-11; type: cell-based; conditions: Homo sapiens
# Experimental: 2019 October; 94(4): 1813-1823.
# Cell viability was assessed using the CellTiter-Glo 2.0 assay from Promega, which yields a signal proportional to the amount of ATP present in a cell population. Compounds were first dispensed into empty 96-well flat-bottom tissue culture-treated plates (Corning) using an Echo550. MV4-1 cells were diluted to a density of 0.1 million cells per ml, pipetted onto the compounds at a density of 1,000 cells per well for U937 and 3,000 cells per well for MV4-11, mixed, and incubated for 3 days at 37° C. with 5% C02. After incubating, 5 μl of cells from each well were added to 5 μl of CellTiter-Glo 2.0 reagent in a384-well white ProxiPlate (PerkinElmer), incubated for 20 minutes at ambient temperature, and luminescence was analyzed on an EnSpire plate reader. Graphing and regression analysis was performed in Graphpad Prism.
# [2] = test system: full NCI 60 cell panel; experiment: NCI 60 Cell One-dose screen; type: cell-based, human; conditions: single high dose 10^−5 M, NCI 60 panel
# From the text: Compounds were submitted to the NCI 60 Cell screen and tested at a single high dose (10^−5 M) in the full NCI 60 cell panel (see the following reference for details of using NCI 60 human tumor cell lines for screening anticancer drugs: Shoemaker R H. The NCI60 human tumor cell line anticancer drug screen. Nature Rev Cancer 2006; 6: 813-23). The One-dose data is reported as a mean graph of the percent growth of treated cells. The number reported for the One-dose assay is growth relative to the no-drug control, and relative to the time zero number of cells. This allows detection of both growth inhibition (values between 0 and 100) and lethality (values less than 0). For example, a value of 100 means no growth inhibition. A value of 40 would mean 60% growth inhibition. A value of 0 means no net growth over the course of the experiment. A value of −40 would mean 40% lethality. A value of −100 means all cells are dead. FIGS. 1-8 show the mean graph of percent growth against the NCI-60 cell panel for NUCC-0226674, NUCC-0226679, NUCC-0226680, NUCC-0226683, NUCC-0226689, NUCC-0226694, NUCC-0226695, and NUCC-0226698.
# [3] = test system: K-562; experiment: NCI 60 five-dose screen K-562; type: cell-based; conditions: Homo sapiens, K562, five-dose; for CC50: read-out: LC50 (the source's name)
# [4] = test system: SR; experiment: NCI 60 five-dose screen SR; type: cell-based, human; conditions: five-dose; for GI50 / IC50 / CC50: Homo sapiens; for CC50: read-out: LC50 (the source's name)
# [5] = test system: EKVX; experiment: NCI 60 five-dose screen EKVX; type: cell-based; conditions: Homo sapiens, five-dose; for CC50: read-out: LC50 (the source's name) (converted)
# [6] = test system: HOP-62; experiment: NCI 60 five-dose screen HOP-62; type: cell-based; conditions: Homo sapiens, five-dose; for CC50: read-out: LC50 (the source's name) (converted)
# [7] = test system: HOP-92; experiment: NCI 60 five-dose screen HOP-92; type: cell-based; conditions: Homo sapiens, five-dose; for CC50: read-out: LC50 (the source's name) (converted)
# [8] = test system: NCI-H226; experiment: NCI 60 five-dose screen NCI-H226; type: cell-based; conditions: Homo sapiens, five-dose; for CC50: read-out: LC50 (the source's name) (converted)
# [9] = test system: NCI-H322M; experiment: NCI 60 five-dose screen NCI-H322M; type: cell-based; conditions: Homo sapiens, five-dose; for CC50: read-out: LC50 (the source's name) (converted)
# [10] = test system: HCT-116; experiment: NCI 60 five-dose screen HCT-116; type: cell-based; conditions: Homo sapiens, five-dose; for CC50: read-out: LC50 (the source's name) (converted)
# [11] = test system: HCT-15; experiment: NCI 60 five-dose screen HCT-15; type: cell-based; conditions: Homo sapiens, five-dose; for CC50: read-out: LC50 (the source's name) (converted)
# [12] = test system: HT29; experiment: NCI 60 five-dose screen HT29; type: cell-based; conditions: Homo sapiens, HT-29, five-dose; for CC50: read-out: LC50 (the source's name) (converted)
# [13] = test system: SF-268; experiment: NCI 60 five-dose screen SF-268; type: cell-based; conditions: Homo sapiens, five-dose; for CC50: read-out: LC50 (the source's name) (converted)
# [14] = test system: SF-295; experiment: NCI 60 five-dose screen SF-295; type: cell-based; conditions: Homo sapiens, five-dose; for CC50: read-out: LC50 (the source's name) (converted)
# [15] = test system: SNB-75; experiment: NCI 60 five-dose screen SNB-75; type: cell-based; conditions: Homo sapiens, five-dose; for CC50: read-out: LC50 (the source's name) (converted)
# [16] = test system: SK-MEL-5; experiment: NCI 60 five-dose screen SK-MEL-5; type: cell-based; conditions: Homo sapiens, five-dose; for CC50: read-out: LC50 (the source's name) (converted)
# [17] = test system: OVCAR-4; experiment: NCI 60 five-dose screen OVCAR-4; type: cell-based; conditions: Homo sapiens, five-dose; for CC50: read-out: LC50 (the source's name) (converted)
# [18] = test system: OVCAR-5; experiment: NCI 60 five-dose screen OVCAR-5; type: cell-based; conditions: Homo sapiens, five-dose; for CC50: read-out: LC50 (the source's name) (converted)
# [19] = test system: CAKI-1; experiment: NCI 60 five-dose screen CAKI-1; type: cell-based; conditions: Homo sapiens, five-dose; for CC50: read-out: LC50 (the source's name) (converted)
# [20] = test system: MDA-MB-231/ATCC; experiment: NCI 60 five-dose screen MDA-MB-231/ATCC; type: cell-based; conditions: Homo sapiens, five-dose; for CC50: read-out: LC50 (the source's name) (converted)
# [21] = MV4-11, 72 h, MV-4-11 cells, 3 days, CellTiter-Glo 2.0, read-out: IC50 (uM) [Cell Type: MV-4-11]
# [22] = MV4-11, bound stated in text, read-out: IC50 against MV-4-11 acute myeloid leukemia cells
smiles,measurement,setting,value
FC(F)(F)c1cc2c(Cl)ncnc2n1CCN1CCCCC1 [NUCC-0226679],IC50,[1]; [21],0.675 µM
same,IC50,[1]; [22],< 2 µM
same,growth inhibition in the One-Dose Screen,[2],significant growth inhibition
same,GI50,[3],2.88 µM
same,IC50,[3],3.63 µM
same,IC (TGI),[3],100 µM
same,CC50,[3],≥ 100 µM
same,GI50,[4],3.31 µM
same,IC50,[4],6.17 µM
same,CC50,[4],≥ 100 µM
same,TGI,[4],4.58 −log[M]
same,GI50,[5],16.2 µM
same,IC50,[5],51.3 µM
same,IC (TGI),[5],85.1 µM
same,CC50,[5],≥ 100 µM
same,GI50,[6],38 µM
same,IC50,[6],100 µM
same,IC (TGI),[6],100 µM
same,CC50,[6],≥ 100 µM
same,GI50,[7],19.5 µM
same,IC50,[7],63.1 µM
same,IC (TGI),[7],53.7 µM
same,CC50,[7],≥ 100 µM
same,GI50,[8],60.3 µM
same,IC50,[8],100 µM
same,IC (TGI),[8],100 µM
same,CC50,[8],≥ 100 µM
same,GI50,[9],15.5 µM
same,IC50,[9],36.3 µM
same,IC (TGI),[9],43.7 µM
same,CC50,[9],≥ 100 µM
same,GI50,[10],4.9 µM
same,IC50,[10],6.03 µM
same,IC (TGI),[10],20.4 µM
same,CC50,[10],67.6 µM
same,GI50,[11],3.16 µM
same,IC50,[11],4.17 µM
same,IC (TGI),[11],12.9 µM
same,CC50,[11],55 µM
same,GI50,[12],20.9 µM
same,IC50,[12],29.5 µM
same,IC (TGI),[12],81.3 µM
same,CC50,[12],≥ 100 µM
same,GI50,[13],16.2 µM
same,IC50,[13],30.9 µM
same,IC (TGI),[13],38.9 µM
same,CC50,[13],93.3 µM
same,GI50,[14],22.4 µM
same,IC50,[14],40.7 µM
same,IC (TGI),[14],87.1 µM
same,CC50,[14],≥ 100 µM
same,GI50,[15],10.5 µM
same,IC50,[15],22.9 µM
same,IC (TGI),[15],22.4 µM
same,CC50,[15],47.9 µM
same,GI50,[16],14.8 µM
same,IC50,[16],26.3 µM
same,IC (TGI),[16],30.9 µM
same,CC50,[16],64.6 µM
same,GI50,[17],28.2 µM
same,IC50,[17],70.8 µM
same,IC (TGI),[17],100 µM
same,CC50,[17],≥ 100 µM
same,GI50,[18],100 µM
same,IC50,[18],100 µM
same,IC (TGI),[18],100 µM
same,CC50,[18],≥ 100 µM
same,GI50,[19],25.1 µM
same,IC50,[19],47.9 µM
same,IC (TGI),[19],100 µM
same,CC50,[19],≥ 100 µM
same,GI50,[20],5.5 µM
same,IC50,[20],14.5 µM
same,IC (TGI),[20],19.5 µM
same,CC50,[20],50.1 µM
FC(F)(F)c1cc2c(Cl)ncnc2n1CCN1CCOCC1 [NUCC-0226680],IC50,[1]; [21],0.679 µM
same,IC50,[1]; [22],< 2 µM
same,growth inhibition in the One-Dose Screen,[2],significant growth inhibition
same,GI50,[3],3.02 µM
same,IC50,[3],3.72 µM
same,IC (TGI),[3],18.6 µM
same,CC50,[3],≥ 100 µM
same,GI50,[4],2.88 µM
same,IC50,[4],4.37 µM
same,CC50,[4],≥ 100 µM
same,TGI,[4],4.9 −log[M]
same,GI50,[5],17 µM
same,IC50,[5],50.1 µM
same,IC (TGI),[5],95.5 µM
same,CC50,[5],≥ 100 µM
same,GI50,[6],38.9 µM
same,IC50,[6],100 µM
same,IC (TGI),[6],100 µM
same,CC50,[6],≥ 100 µM
same,GI50,[7],19.1 µM
same,IC50,[7],79.4 µM
same,IC (TGI),[7],60.3 µM
same,CC50,[7],≥ 100 µM
same,GI50,[8],100 µM
same,IC50,[8],100 µM
same,IC (TGI),[8],100 µM
same,CC50,[8],≥ 100 µM
same,GI50,[9],15.8 µM
same,IC50,[9],41.7 µM
same,IC (TGI),[9],53.7 µM
same,CC50,[9],≥ 100 µM
same,GI50,[10],4.68 µM
same,IC50,[10],5.62 µM
same,IC (TGI),[10],100 µM
same,CC50,[10],≥ 100 µM
same,GI50,[11],3.31 µM
same,IC50,[11],4.27 µM
same,IC (TGI),[11],17.8 µM
same,CC50,[11],≥ 100 µM
same,GI50,[12],27.5 µM
same,IC50,[12],36.3 µM
same,IC (TGI),[12],100 µM
same,CC50,[12],≥ 100 µM
same,GI50,[13],14.8 µM
same,IC50,[13],28.2 µM
same,IC (TGI),[13],33.9 µM
same,CC50,[13],77.6 µM
same,GI50,[14],24.5 µM
same,IC50,[14],45.7 µM
same,IC (TGI),[14],100 µM
same,CC50,[14],≥ 100 µM
same,GI50,[15],10.2 µM
same,IC50,[15],23.4 µM
same,IC (TGI),[15],22.4 µM
same,CC50,[15],49 µM
same,GI50,[16],12.9 µM
same,IC50,[16],22.9 µM
same,IC (TGI),[16],29.5 µM
same,CC50,[16],67.6 µM
same,GI50,[17],33.1 µM
same,IC50,[17],100 µM
same,IC (TGI),[17],100 µM
same,CC50,[17],≥ 100 µM
same,GI50,[18],100 µM
same,IC50,[18],100 µM
same,IC (TGI),[18],100 µM
same,CC50,[18],≥ 100 µM
same,GI50,[19],27.5 µM
same,IC50,[19],56.2 µM
same,IC (TGI),[19],100 µM
same,CC50,[19],≥ 100 µM
same,GI50,[20],4.37 µM
same,IC50,[20],11.5 µM
same,IC (TGI),[20],18.2 µM
same,CC50,[20],53.7 µM
